In patent US5599553A, “Local drug delivery film for periodontal treatment” (Dong Kook Pharmaceutical Co., Ltd., priority 1992, dated 1997):

Tests used:
[1] = test system: Actinobacillus actinomycetemcomitans; experiment: Susceptibility test of antibiotics / MIC of minocycline; type: cell-based
Protocol: (§1) At first, the minimal inhibitory concentration (hereinafter it is abbreviated to MIC) of minocycline for bacilli, especially Antinobacillus actinomycetemcomitans as main bacillus and the minimum period to optimum treatment effect with MIC were examined. […] Also, it was reported by Goodson et al. that the concentration more than MIC has to be sustained to inhibit growth of periodontal bacillus for at least 48 hours, especially at least 10 days for optimum treatment effect. Accordingly, local drug delivery should sustain the concentration of minocyclne in the periodontal pocket at least 4 μg/ml for at least 48 hours, and especially more than 10 days to optimize treatment effect. So the present local drug delivery was examined to learn if it coincided with the standard or not.

[2] = test system: 139 kinds of tested bacilli; experiment: Susceptibility test of antibiotics to bacilli in mouth; type: cell-based
Protocol: as §1

[3] = test system: human gingival fibroblast; experiment: Rapid colorimetric assay for cellular growth survival (MTT)
Protocol: The floating solution obtained was devided into microtest plate well (obtained from Nuck, Denmark) as much as 2.5×10cell/well using the standard blood corpuscle calculation method so that MEM containing 10% fatal calf serum, peniciline 10 units/ml, streptomycine 100 μg/ml and fungizone 0.2 μl/ml became containing 2500, 5000, 10000, 15000, 20000, and 30000 cell per 200 ml and the resulting solution was incubated. Culture solution was changed next day. After 2 days, culture solution was removed and washed with HBSS. […] This was incubated in incubator at 37° C. […] As control group, MEM culture solution well was used every test. All test results were calculated as percentage unit to control group.

[4] = test system: human gingival fibroblast; experiment: Cytotoxic inhibition activity, [3H]-thymidine incorporation
Protocol: Human gingival fibroblast was cultivated and divided into 24 multi-well dish as much as 1×10 ^5 cell/well each. Medium was chant ed next day. After 3 days, medium was removed and washed with Hank's balanced salt solution (hereinafter it is abbreviated to HBSS). […] After 2 hours, said solutions were stood at 4° C. for 10 min using ice cold 5% Trichloroacetic acid (TCA) 3 ml. After washing 3 or 4 times with TCA, removed TCA, and dissolved gingival fibroblast by 0.5N-NaOH 1 ml at 37° C. for 30 min. 50 μl of said solution was taken, added 4 ml of cocktail solution to said solution and count per minute was measured by liquid scintillation counter.

## CN(C)c1ccc(O)c2c1C[C@H]1C[C@H]3[C@H](N(C)C)C(=O)C(C(N)=O)=C(O)[C@@]3(O)C(=O)C1=C2O [minocycline]
[1]
  break point of minocycline concentration to periodontal treatment: 2 to 4 µg/mL
[1]; Aggregatibacter actinomycetemcomitans, read-out: concentration of minocycline at which susceptibility is shown
  MIC: 2 to 4 µg/mL
[2]
  tested bacilli that showed susceptibility: 98%
[3]
  difference in cell activity according to minocycline concentration: difference in cell activity according to concentration of minocycline was not observed
[4]; 160 μg/ml to 2560 μg/ml
  growth of gingival fibroblast: growth of gingival fibroblast was not inhibited
[4]; observation for 7 days
  growth inhibition of gingival fibroblast: statistical singnificance about growth inhibitory of gingival fibroblast was not observed
